Like-named read-outs stand apart in the source and are kept apart here.
How the values were obtained:
[1] = system: M. avium 101; test: radiometric 14CO2 BACTEC 460 growth culture, M. avium 101; assay type: cell-based, M. avium subspecies avium; settings: for effect on growth (in words): at the doses tested
[2] = system: Bacillus Callmette Guerin (BCG) M. bovis Karlson & Lessel (ATCC 19015); assay type: cell-based
[3] = system: M. avium ATCC 25291; test: radiometric 14CO2 BACTEC 460 growth culture, M. avium 25291; assay type: cell-based, M. avium subspecies avium; settings: for effect on growth (in words): at the doses tested
[4] = system: MAP strain UCF-4; test: radiometric 14CO2 BACTEC 460 growth culture, MAP UCF-4; assay type: cell-based, Mycobacterium avium subspecies paratuberculosis; settings: for effect on growth (in words): at the doses tested
[5] = system: MAP 303; test: radiometric 14CO2 BACTEC 460 growth culture, MAP 303; assay type: cell-based, Mycobacterium avium subspecies paratuberculosis; settings: for effect on growth (in words): at the doses tested
[6] = system: MAP ATCC 19698; test: radiometric 14CO2 BACTEC 460 growth culture, MAP 19698; assay type: cell-based, Mycobacterium avium subspecies paratuberculosis; settings: for effect on growth (in words): at the doses tested
[7] = system: avirulent M. tb strain ATCC 25177; assay type: cell-based, M. tuberculosis
[8] = system: MAP strain Dominic (ATCC 43545); test: radiometric 14CO2 BACTEC 460 growth culture, MAP Dominic; assay type: cell-based, Mycobacterium avium subspecies paratuberculosis; settings: for effect on growth (in words): at the doses tested
[9] = 1 μg/ml, first of the two values (two experiments)
[10] = 1 μg/ml, second of the two values (two experiments)
[11] = 4 μg/ml, first of the two values (two experiments)
[12] = 4 μg/ml, second of the two values (two experiments)
[13] = 16 μg/ml, first of the two values (two experiments)
[14] = 16 μg/ml, second of the two values (two experiments)
[15] = 64 μg/ml, first of the two values (two experiments)
[16] = 64 μg/ml, second of the two values (two experiments)

NNC(=O)c1ccncc1 [INH, Isoniazid, reference compound]
percent change from control cGI (% ΔcGI / % −ΔcGI) ([1]; 1 μg/ml): −48% | percent change from control cGI (% ΔcGI / % −ΔcGI) ([1]; 4 μg/ml): −96% | percent change from control cGI (% ΔcGI / % −ΔcGI) ([1]; 16 μg/ml): −95% | percent change from control cGI (% ΔcGI / % −ΔcGI) ([1]; 64 μg/ml): −97% | percent decrease from control cGI (%−ΔcGI) ([1]; 64 μg/ml, value is a decrease): ≥ 97% | percent decrease from control cGI (%−ΔcGI) [2]: ≥ 97% | percent change from control cGI (% ΔcGI / % −ΔcGI) ([3]; 1 μg/ml): 176% | percent change from control cGI (% ΔcGI / % −ΔcGI) ([3]; 4 μg/ml): 89% | percent change from control cGI (% ΔcGI / % −ΔcGI) ([3]; 16 μg/ml): 189% | percent change from control cGI (% ΔcGI / % −ΔcGI) ([3]; 64 μg/ml): −90% | percent change from control cGI (% ΔcGI / % −ΔcGI) ([4]; 1 μg/ml): −5% | percent change from control cGI (% ΔcGI / % −ΔcGI) ([4]; 4 μg/ml): 2% | percent change from control cGI (% ΔcGI / % −ΔcGI) ([4]; 16 μg/ml): −4% | percent change from control cGI (% ΔcGI / % −ΔcGI) ([4]; 64 μg/ml): −35% | effect on growth (in words) [4]: no dose-dependent inhibition | percent change from control cGI (% ΔcGI / % −ΔcGI) ([5]; 1 μg/ml): −18% | percent change from control cGI (% ΔcGI / % −ΔcGI) ([5]; 4 μg/ml): −6% | percent change from control cGI (% ΔcGI / % −ΔcGI) ([5]; 16 μg/ml): −12% | percent change from control cGI (% ΔcGI / % −ΔcGI) ([5]; 64 μg/ml): −52% | effect on growth (in words) [5]: no dose-dependent inhibition | percent change from control cGI (% ΔcGI / % −ΔcGI) ([6]; 1 μg/ml): −20% | percent change from control cGI (% ΔcGI / % −ΔcGI) ([6]; 4 μg/ml): −14% | percent change from control cGI (% ΔcGI / % −ΔcGI) ([6]; 16 μg/ml): −17% | percent change from control cGI (% ΔcGI / % −ΔcGI) ([6]; 64 μg/ml): −63% | effect on growth (in words) [6]: no dose-dependent inhibition | percent change from control cGI (% ΔcGI / % −ΔcGI) ([7]; 1 μg/ml): −97% | percent decrease from control cGI (%−ΔcGI) ([7]; 1 μg/ml): 97% | percent change from control cGI (% ΔcGI / % −ΔcGI) ([7]; 4 μg/ml): −98% | percent change from control cGI (% ΔcGI / % −ΔcGI) ([7]; 16 μg/ml): −98% | percent change from control cGI (% ΔcGI / % −ΔcGI) ([7]; 64 μg/ml): −98% | percent change from control cGI (% ΔcGI / % −ΔcGI) [8, 9]: 18% | percent change from control cGI (% ΔcGI / % −ΔcGI) [8, 10]: 11% | percent change from control cGI (% ΔcGI / % −ΔcGI) [8, 11]: 9% | percent change from control cGI (% ΔcGI / % −ΔcGI) [8, 12]: 29% | percent change from control cGI (% ΔcGI / % −ΔcGI) [8, 13]: −4% | percent change from control cGI (% ΔcGI / % −ΔcGI) [8, 14]: 9% | percent change from control cGI (% ΔcGI / % −ΔcGI) [8, 15]: −65% | percent change from control cGI (% ΔcGI / % −ΔcGI) [8, 16]: −52% | effect on growth (in words) [8]: no dose-dependent inhibition

NC(=O)c1cccnc1 [Nicotinamide, nicotinamide]
percent change from control cGI (% ΔcGI / % −ΔcGI) ([1]; 0.1 μg/ml): 6% | percent change from control cGI (% ΔcGI / % −ΔcGI) ([1]; 0.4 μg/ml): −21% | percent change from control cGI (% ΔcGI / % −ΔcGI) ([1]; 1.6 μg/ml): 7% | percent change from control cGI (% ΔcGI / % −ΔcGI) ([1]; 6.4 μg/ml): 58% | effect on growth (in words) [1]: caused enhancement of growth | effect on growth (in words) ([2]; at the doses tested): no effect | percent change from control cGI (% ΔcGI / % −ΔcGI) ([3]; 0.1 μg/ml): 23% | percent change from control cGI (% ΔcGI / % −ΔcGI) ([3]; 0.4 μg/ml): 105% | percent change from control cGI (% ΔcGI / % −ΔcGI) ([3]; 1.6 μg/ml): 157% | percent change from control cGI (% ΔcGI / % −ΔcGI) ([3]; 6.4 μg/ml): 144% | effect on growth (in words) [3]: caused enhancement of growth | percent change from control cGI (% ΔcGI / % −ΔcGI) ([4]; 0.1 μg/ml): 20% | percent change from control cGI (% ΔcGI / % −ΔcGI) ([4]; 0.4 μg/ml): 52% | percent change from control cGI (% ΔcGI / % −ΔcGI) ([4]; 1.6 μg/ml): 73% | percent change from control cGI (% ΔcGI / % −ΔcGI) ([4]; 6.4 μg/ml): 79% | effect on growth (in words) [4]: enhanced | percent change from control cGI (% ΔcGI / % −ΔcGI) ([5]; 0.1 μg/ml): −5% | percent change from control cGI (% ΔcGI / % −ΔcGI) ([5]; 0.4 μg/ml): −28% | percent change from control cGI (% ΔcGI / % −ΔcGI) ([5]; 1.6 μg/ml): 11% | percent change from control cGI (% ΔcGI / % −ΔcGI) ([5]; 6.4 μg/ml): 3% | effect on growth (in words) [5]: no effect | percent change from control cGI (% ΔcGI / % −ΔcGI) ([6]; 0.1 μg/ml): −6% | percent change from control cGI (% ΔcGI / % −ΔcGI) ([6]; 0.4 μg/ml): −2% | percent change from control cGI (% ΔcGI / % −ΔcGI) ([6]; 1.6 μg/ml): −8% | percent change from control cGI (% ΔcGI / % −ΔcGI) ([6]; 6.4 μg/ml): −7% | effect on growth (in words) [6]: no effect | effect on growth (in words) [7]: no effect | percent change from control cGI (% ΔcGI / % −ΔcGI) ([8]; 0.1 μg/ml, second value printed in Table 4): 32% | percent change from control cGI (% ΔcGI / % −ΔcGI) ([8]; 0.4 μg/ml, second value printed in Table 4): 98% | percent change from control cGI (% ΔcGI / % −ΔcGI) [8, 9]: 110% | percent change from control cGI (% ΔcGI / % −ΔcGI) ([8]; 1.6 μg/ml, second value printed in Table 4): 156% | percent change from control cGI (% ΔcGI / % −ΔcGI) [8, 11]: 115% | percent change from control cGI (% ΔcGI / % −ΔcGI) ([8]; 6.4 μg/ml, second value printed in Table 4): 156% | percent change from control cGI (% ΔcGI / % −ΔcGI) [8, 13]: 125% | percent change from control cGI (% ΔcGI / % −ΔcGI) [8, 15]: 106% | effect on growth (in words) [8]: enhanced | percent increase from control cGI (%+ΔcGI) ([8]; for 1, 4, 16 and 64 μg/ml, first experiment): ≥ 100%

O=C(O)c1cccnc1 [Nicotinic acid, nicotinic acid]
percent change from control cGI (% ΔcGI / % −ΔcGI) ([1]; 1 μg/ml): 41% | percent change from control cGI (% ΔcGI / % −ΔcGI) ([1]; 4 μg/ml): 47% | percent change from control cGI (% ΔcGI / % −ΔcGI) ([1]; 16 μg/ml): 40% | percent change from control cGI (% ΔcGI / % −ΔcGI) ([1]; 64 μg/ml): 56% | effect on growth (in words) [1]: enhanced growth | percent change from control cGI (% ΔcGI / % −ΔcGI) ([3]; 1 μg/ml): 98% | percent change from control cGI (% ΔcGI / % −ΔcGI) ([3]; 4 μg/ml): 170% | percent change from control cGI (% ΔcGI / % −ΔcGI) ([3]; 16 μg/ml): 167% | percent change from control cGI (% ΔcGI / % −ΔcGI) ([3]; 64 μg/ml): 175% | effect on growth (in words) [3]: enhanced growth | percent change from control cGI (% ΔcGI / % −ΔcGI) ([4]; 1 μg/ml): 48% | percent change from control cGI (% ΔcGI / % −ΔcGI) ([4]; 4 μg/ml): 63% | percent change from control cGI (% ΔcGI / % −ΔcGI) ([4]; 16 μg/ml): 101% | percent change from control cGI (% ΔcGI / % −ΔcGI) ([4]; 64 μg/ml): 92% | percent change from control cGI (% ΔcGI / % −ΔcGI) ([4]; 64 μg/ml, listed as nicotinic acid): 92% | percent change from control cGI (% ΔcGI / % −ΔcGI) ([5]; 1 μg/ml): −4% | percent change from control cGI (% ΔcGI / % −ΔcGI) ([5]; 4 μg/ml): 2% | percent change from control cGI (% ΔcGI / % −ΔcGI) ([5]; 16 μg/ml): −4% | percent change from control cGI (% ΔcGI / % −ΔcGI) ([5]; 64 μg/ml): 22% | effect on growth (in words) [5]: far less nicotinic acid induced enhancement | percent change from control cGI (% ΔcGI / % −ΔcGI) ([6]; 1 μg/ml): −17% | percent change from control cGI (% ΔcGI / % −ΔcGI) ([6]; 4 μg/ml): −4% | percent change from control cGI (% ΔcGI / % −ΔcGI) ([6]; 16 μg/ml): 12% | percent change from control cGI (% ΔcGI / % −ΔcGI) ([6]; 64 μg/ml): 30% | effect on growth (in words) [6]: far less nicotinic acid induced enhancement | percent change from control cGI (% ΔcGI / % −ΔcGI) [8, 9]: 46% | percent change from control cGI (% ΔcGI / % −ΔcGI) [8, 10]: 71% | percent change from control cGI (% ΔcGI / % −ΔcGI) [8, 11]: 133% | percent change from control cGI (% ΔcGI / % −ΔcGI) [8, 12]: 181% | percent change from control cGI (% ΔcGI / % −ΔcGI) [8, 13]: 195% | percent change from control cGI (% ΔcGI / % −ΔcGI) [8, 14]: 198% | percent change from control cGI (% ΔcGI / % −ΔcGI) [8, 15]: 197% | percent change from control cGI (% ΔcGI / % −ΔcGI) [8, 16]: 225%

O=C(O)c1ccccc1O [salicylic acid, reference compound]
percent change from control cGI (% ΔcGI / % −ΔcGI) ([2]; 64 μg/ml): 95% | percent change from control cGI (% ΔcGI / % −ΔcGI) ([3]; 64 μg/ml): 104% | percent change from control cGI (% ΔcGI / % −ΔcGI) ([5]; 64 μg/ml): 66%

From patent publication US8507251B2, “Medium and method for culturing Mycobacterium avium subspecies paratuberculosis” (priority 2009, dated 2013)
